How the values were obtained:
[1] = test system: Escherichia coli (E. coli); assay: Bacteriostatic effect of BAK with BBG/BBR: turbidity after 24 h incubation; assay type: cell-based; design: key to Bakterienwachstum nach 24 h Inkubation: +: Bakterienwachstum nach 24 h Inkubation; -: kein Bakterienwachstum nach 24 h Inkubation
Experimental: (§1) Zur Untersuchung des Einflusses von BBG auf die bakteriostatische Wirkung wurden Bakterien 24 h mit erfindungsgemäßen Zusammensetzungen, Benzalkoniumchlorid (BAK) und Octenidin (Oct) als Bakteriostatikum enthielten, inkubiert. Wenn sich die Inkubationsmischung trübte, wurde das als Bakterienwachstum interpretiert. Zum Vergleich wurde Brillantblau R (BBR) anstelle von BBG eingesetzt. Die Ergebnisse sind in den Tabellen 1-4 wiedergegeben. Tabelle 1: Einfluss von BBG und BBR auf die bakteriostatische Wirkung von BAK gegenüber Escherichia coli (E. coli), + = Bakterienwachstum nach 24 h Inkubation, - = kein Bakterienwachstum nach 24 h Inkubation, R = Brillantblau R (BBR), G = Brillantblau G (BBG).

[2] = test system: Bacillus sp.; assay: as above; assay type: cell-based; design: key to Bakterienwachstum nach 24 h Inkubation: +: Bakterienwachstum nach 24 h Inkubation; -: kein Bakterienwachstum nach 24 h Inkubation
Experimental: as §1
Tabelle 2: Einfluss von BBG und BBR auf die bakteriostatische Wirkung von BAK gegenüber Bacillus sp., + = Bakterienwachstum nach 24 h Inkubation, - = kein Bakterienwachstum nach 24 h Inkubation, R = Brillantblau R (BBR), G = Brillantblau G (BBG).

[3] = test system: HCE-Zellen; assay type: cell-based, human
Experimental: Die Erfindung wird im Folgenden rein zu Veranschaulichungszwecken anhand der angehängten Figuren und von Ausführungsbeispielen näher erläutert. • Figur 1 Effekt von 0,025% BBG auf die Toxizität von unterschiedlichen Konzentrationen (in Gew.-%) von Benzalkoniumchlorid (BAK) auf HCE-Zellen (HCE = human corneal epithelium, Menschliche Hornhautepithelzellen) bei verschiedenen Einwirkdauern (5, 30, 60 min). Oben: BAK ohne BBG. Unten: BAK mit BBG. Inkubationsmedium: Phosphat-gepufferte Kochsalzlösung (PBS). • Figur 2 Effekt von BBG (in Gew.-%) in unterschiedlichen Konzentrationen auf die Toxizität von BAK bei 0,003% (oben) und 0,008% (unten). PBS = Phosphat-gepufferte Kochsalzlösung; BBS = balanced salt solution (ausgeglichene Salzlösung). • Figur 3 Effekt von BBG (0,025 Gew.-%) auf die Toxizität von Octenidindihydrochlorid (Oct) in unterschiedlichen Konzentrationen (in Gew.-%) nach 5 min Inkubation (oben) und 30 min Inkubation (unten). Octenidin alone = Octenidin allein (ohne BBG). • Figur 4 Effekt von BBG (0,025 %) auf die Toxizität von Cetylpyridiniumchlorid (CPC) in unterschiedlichen Konzentrationen (in Gew.-%) nach 5 min Inkubation (oben) und 30 min Inkubation (unten). CPC alone = Cetylpyridiniumchlorid allein (ohne BBG). • Figur 5 Effekt von BBG (0,025 %) auf die Toxizität von Chlorhexidin (CHex) in Form von Chlorhexidindigluconat in unterschiedlichen Konzentrationen (in Gew.-%) nach 5 min Inkubation (oben) und 30 min Inkubation (unten). Chlorhexidin alone = Chlorhexidin allein (ohne BBG)
Figur 1 zeigt die Wirkung von BBG 0,025% Gew.-% auf die Toxizität von unterschiedlichen Konzentrationen (in Gew.-%) von Benzalkoniumchlorid (BAK) auf HCE-Zellen (HCE = human corneal epithelium, Menschliche Hornhautepithelzellen) bei verschiedenen Einwirkdauern (5, 30, 60 min).
Figur 2 zeigt die Wirkung von BBG (in Gew.-%) in unterschiedlichen Konzentrationen und zwei unterschiedlichen Medien (PBS und BSS) auf die Toxizität von BAK bei 0,003% (oben) und 0,008% (unten) bei HCE-Zellen. Die Schutzwirkung von BBG bei niedrigeren BAK-Konzentrationen setzt schon bei 0,003% BBG ein. Bei höheren BAK-Konzentrationen sind 0,015% notwendig.
Figur 3 zeigt die Wirkung von BBG (0,025 Gew.-%) auf die Toxizität von Octenidin (Oct) Form von Octenidindihydrochlorid in unterschiedlichen Konzentrationen (in Gew.-%) nach 5 min Inkubation (oben) und 30 min Inkubation (unten). Octenidin alone = Octenidin allein (ohne BBG). […] BBG (0,025 Gew.-%) kann diesen Effekt bei 5 min Inkubation (links) bis zu einer Oct-Konzentration von 0,01% (der höchsten getesteten Konzentration) verhindern. Bei 30 min Einwirkzeit (rechts) ist erst ab 0,009 Gew.-% Oct der Schutz nicht mehr maximal.
Die Figuren 4 und 5 zeigen die Wirkung von BBG (0,025 Gew.-%) auf die Toxizität von Cetylpyridiniumchlorid (CPC, Fig. 4) und Chlorhexidin (CHex in Form von Chlorhexidindigluconat, Fig. 5) in unterschiedlichen Konzentrationen (in Gew.-%) nach 5 min Inkubation (jeweils oben) und 30 min Inkubation (jeweils unten).

[4] = test system: Escherichia coli DH5α; assay: Bacteriostatic effect of Octenidin with BBG: turbidity after 24 h incubation; assay type: cell-based; design: key: +: Bakterienwachstum nach 24 h Inkubation; -: kein Bakterienwachstum nach 24 h Inkubation; settings: no BBG
Experimental: as §1
(§2) Gram-negative Bakterien (hier E. coli) sind widerstandsfähiger als Gram-positive Bakterien (hier Bacillus sp.) und wachsen konzentrationsabhängig. […] Tabelle 3: Einfluss von BBG auf die bakteriostatische Wirkung von Octenidin (Oct) gegenüber Gram-negativen Bakterien., + = Bakterienwachstum nach 24 h Inkubation, - = kein Bakterienwachstum nach 24 h Inkubation, BBG = Brillantblau G.

[5] = test system: Pseudomonas putida DSM 291; assay: as above; assay type: cell-based; design: key: +: Bakterienwachstum nach 24 h Inkubation; -: kein Bakterienwachstum nach 24 h Inkubation; settings: no BBG
Experimental: as §1, §2

[6] = test system: Vibrio sp. Gal12; assay: as above; assay type: cell-based; design: key: +: Bakterienwachstum nach 24 h Inkubation; -: kein Bakterienwachstum nach 24 h Inkubation; settings: no BBG
Experimental: as §1, §2

[7] = test system: Bacillus megaterium; assay: as above; assay type: cell-based; design: key: +: Bakterienwachstum nach 24 h Inkubation; -: kein Bakterienwachstum nach 24 h Inkubation; settings: no BBG
Experimental: as §1
(§3) Tabelle 4: Einfluss von BBG auf die bakteriostatische Wirkung von Octenidin (Oct) gegenüber Gram-positiven Bakterien., + = Bakterienwachstum nach 24 h Inkubation, - = kein Bakterienwachstum nach 24 h Inkubation, +/- = geringes Wachstum nach 24 h Inkubation, BBG = Brillantblau G.

[8] = test system: Bacillus subtilis; assay: as above; assay type: cell-based; design: key: +: Bakterienwachstum nach 24 h Inkubation; -: kein Bakterienwachstum nach 24 h Inkubation; settings: no BBG
Experimental: as §1, §3

[9] = test system: Clavibacter michiganensis; assay: as above; assay type: cell-based; design: key: +: Bakterienwachstum nach 24 h Inkubation; -: kein Bakterienwachstum nach 24 h Inkubation; settings: no BBG
Experimental: as §1, §3

[10] = test system: Paenibacillus sp.; assay: as above; assay type: cell-based; design: key: +: Bakterienwachstum nach 24 h Inkubation; -: kein Bakterienwachstum nach 24 h Inkubation; settings: no BBG
Experimental: as §1, §3

Benzalkoniumchlorid [BAK]
Bakterienwachstum nach 24 h Inkubation ([1]; BAK 0,01% alone, no dye): -
Bakterienwachstum nach 24 h Inkubation ([1]; BAK 0,001 % alone, no dye): -
Bakterienwachstum nach 24 h Inkubation ([2]; BAK 0.001% alone, no dye): -

Brillantblau R [BBR]
Bakterienwachstum nach 24 h Inkubation ([1]; 0,007% R + BAK 0,01%): -
Bakterienwachstum nach 24 h Inkubation ([1]; 0,007% R + BAK 0,001 %): +
Bakterienwachstum nach 24 h Inkubation ([1]; 0,007% R + BAK 0,0016%): +
Bakterienwachstum nach 24 h Inkubation ([1]; 0,007% R + BAK 0,0025%): -
Bakterienwachstum nach 24 h Inkubation ([1]; 0,007% R + BAK 0,004%): -
Bakterienwachstum nach 24 h Inkubation ([1]; 0,007% R + BAK 0,006%): -
Bakterienwachstum nach 24 h Inkubation ([1]; 0,015% R + BAK 0,01%): -
Bakterienwachstum nach 24 h Inkubation ([1]; 0,015% R + BAK 0,001 %): +
Bakterienwachstum nach 24 h Inkubation ([1]; 0,015% R + BAK 0,0016%): +
Bakterienwachstum nach 24 h Inkubation ([1]; 0,015% R + BAK 0,0025%): +
Bakterienwachstum nach 24 h Inkubation ([1]; 0,015% R + BAK 0,004%): -
Bakterienwachstum nach 24 h Inkubation ([1]; 0,015% R + BAK 0,006%): -
Bakterienwachstum nach 24 h Inkubation ([1]; 0,030% R + BAK 0,01%): -
Bakterienwachstum nach 24 h Inkubation ([1]; 0,030% R + BAK 0,001 %): +
Bakterienwachstum nach 24 h Inkubation ([1]; 0,030% R + BAK 0,0016%): +
Bakterienwachstum nach 24 h Inkubation ([1]; 0,030% R + BAK 0,0025%): +
Bakterienwachstum nach 24 h Inkubation ([1]; 0,030% R + BAK 0,004%): +
Bakterienwachstum nach 24 h Inkubation ([1]; 0,030% R + BAK 0,006%): +
Bakterienwachstum nach 24 h Inkubation ([1]; 0,030% R, Kein BAK): +
Einfluss auf die bakteriostatische Wirkung von BAK ([1]; Gram-negative Bakterien (E. coli), concentration dependent): hebt einen Teil der bakteriostatischen Wirkung auf
Einfluss auf das Bakterienwachstum ([1]; dye alone, no BAK (rechte Spalte, Tabelle 1)): beeinflussen das Bakterienwachstum nicht
Bakterienwachstum nach 24 h Inkubation ([2]; 0.007% R + BAK 0.001%): -
Bakterienwachstum nach 24 h Inkubation ([2]; 0.007% R + BAK 0.01%): -
Bakterienwachstum nach 24 h Inkubation ([2]; 0.030% R, Kein BAK): +
Einfluss auf das Bakterienwachstum ([2]; dye alone, no BAK (rechte Spalte, Tabelle 2)): beeinflussen das Bakterienwachstum nicht
Schutzwirkung (zelltoxische Wirkung der Bakteriostatika bei gleichzeitiger Gabe) ([3]; dye given together with the bacteriostatic agent): zeigte sich diese Schutzwirkung nicht

CCCCCCCCN=c1ccn(CCCCCCCCCCn2ccc(=NCCCCCCCC)cc2)cc1 [Octenidin, reference compound]
Bakterienwachstum nach 24 h Inkubation ([4]; Octenidin 0,01% alone): -
Bakterienwachstum nach 24 h Inkubation ([4]; Octenidin 0,002% alone): -
Bakterienwachstum nach 24 h Inkubation ([4]; Octenidin 0,003% alone): -
Bakterienwachstum nach 24 h Inkubation ([4]; Octenidin 0,005% alone): -
Bakterienwachstum nach 24 h Inkubation ([4]; Octenidin 0,007% alone): -
Bakterienwachstum nach 24 h Inkubation ([4]; Octenidin 0,009% alone): -
Bakterienwachstum nach 24 h Inkubation ([5]; Octenidin 0,01% alone): -
Bakterienwachstum nach 24 h Inkubation ([5]; Octenidin 0,002% alone): -
Bakterienwachstum nach 24 h Inkubation ([5]; Octenidin 0,003% alone): -
Bakterienwachstum nach 24 h Inkubation ([5]; Octenidin 0,005% alone): -
Bakterienwachstum nach 24 h Inkubation ([5]; Octenidin 0,007% alone): -
Bakterienwachstum nach 24 h Inkubation ([5]; Octenidin 0,009% alone): -
Bakterienwachstum nach 24 h Inkubation ([6]; Octenidin 0,01% alone): -
Bakterienwachstum nach 24 h Inkubation ([6]; Octenidin 0,002% alone): -
Bakterienwachstum nach 24 h Inkubation ([6]; Octenidin 0,003% alone): -
Bakterienwachstum nach 24 h Inkubation ([6]; Octenidin 0,005% alone): -
Bakterienwachstum nach 24 h Inkubation ([6]; Octenidin 0,007% alone): -
Bakterienwachstum nach 24 h Inkubation ([6]; Octenidin 0,009% alone): -
Toxizität (Zellschädigung) [3]: stark zellschädigend
Bakterienwachstum nach 24 h Inkubation ([7]; Octenidin 0,01% alone): -
Bakterienwachstum nach 24 h Inkubation ([7]; Octenidin 0,002% alone): -
Bakterienwachstum nach 24 h Inkubation ([7]; Octenidin 0,003% alone): -
Bakterienwachstum nach 24 h Inkubation ([7]; Octenidin 0,005% alone): -
Bakterienwachstum nach 24 h Inkubation ([7]; Octenidin 0,007% alone): -
Bakterienwachstum nach 24 h Inkubation ([7]; Octenidin 0,009% alone): -
Bakterienwachstum nach 24 h Inkubation ([8]; Octenidin 0,01% alone): -
Bakterienwachstum nach 24 h Inkubation ([8]; Octenidin 0,002% alone): -
Bakterienwachstum nach 24 h Inkubation ([8]; Octenidin 0,003% alone): -
Bakterienwachstum nach 24 h Inkubation ([8]; Octenidin 0,005% alone): -
Bakterienwachstum nach 24 h Inkubation ([8]; Octenidin 0,007% alone): -
Bakterienwachstum nach 24 h Inkubation ([8]; Octenidin 0,009% alone): -
Bakterienwachstum nach 24 h Inkubation ([9]; Octenidin 0,01% alone): -
Bakterienwachstum nach 24 h Inkubation ([9]; Octenidin 0,002% alone): -
Bakterienwachstum nach 24 h Inkubation ([9]; Octenidin 0,003% alone): -
Bakterienwachstum nach 24 h Inkubation ([9]; Octenidin 0,005% alone): -
Bakterienwachstum nach 24 h Inkubation ([9]; Octenidin 0,007% alone): -
Bakterienwachstum nach 24 h Inkubation ([9]; Octenidin 0,009% alone): -
Bakterienwachstum nach 24 h Inkubation ([10]; Octenidin 0,01% alone): -
Bakterienwachstum nach 24 h Inkubation ([10]; Octenidin 0,002% alone): -
Bakterienwachstum nach 24 h Inkubation ([10]; Octenidin 0,003% alone): -
Bakterienwachstum nach 24 h Inkubation ([10]; Octenidin 0,005% alone): -
Bakterienwachstum nach 24 h Inkubation ([10]; Octenidin 0,007% alone): -
Bakterienwachstum nach 24 h Inkubation ([10]; Octenidin 0,009% alone): -

— EP3041353B1, “COMPOSITIONS COMPRISING BACTERIOSTATIC AGENTS AND BRILLIANT BLUE G” (priority 2013, dated 2015)
